Experimental findings from patent publication US20230265104A1, “NOVEL HETEROCYCLIC COMPOUNDS” (PRISM BIOLAB CO., LTD., priority 2020, published 2023) are described below.

Each structure is given as a SMILES string.

In the test the test system is PANC-1 (human pancreatic cancer-derived cell line). The test is described as follows: MTS assay on Panc-1 (human pancreas carcinoma cell line). The format is cell-based. The settings on record: 144 h; for IC50: PANC-1, MTS method, cell survival 6 days after exposure, 4-parameter logistic fit; for inhibition at 30 µM: PANC-1, MTS, 6 days, read-out: Growth inhibition (%) 30 μM. Here is the method:
Experimental Example: MTS Assay on Panc-1 (Human Pancreas Carcinoma Cell Line) cell line name: PANC-1 derived from: human pancreas glandular cancer purchased from: ATCC product code: CRL-1469 proliferation medium: D-MEM+10% FBS culture environment: 37° C., 5% CO2 seeding density: 5.0×10^5 cells/25 cm^2 solvent control substance: DMSO (HYBRI-MAX®, Sigma-Aldrich Corp.) test substance: Example compound (ID-1-ID-13) A DMSO solution of the test substance was prepared by serially diluting (common ratio 2) each test substance with DMSO.
A solvent control substance sample and a test substance sample were exposed to a human pancreatic cancer-derived cell line (PANC-1), and the survival rate of the cell 6 days later was measured by the MTS method. The measurement was performed 3 times and the average thereof was adopted. The survival rate of the cell in each test substance sample was calculated by the following formula 1 with the value at exposure of the solvent control substance sample as 100% survival rate. […]
survival rate (%)=100×absorbance of each test substance sample/absorbance of solvent control substance sample formula 1 Normalized values calculated by the following formula 2 from the absorbances of each sample at 492 nm and 630 nm and the absorbances of the blank were used as the absorbances in the above-mentioned formula 1. […]
normalized value (ABS492 nm-630 nm)=(ABSsa 492 nm-ABSsa 630 nm)−(ABSbl 492 nm-ABSbl 630 nm) ABSsa 492: absorbance of each sample at wavelength 492 nm ABSsa 630: absorbance of each sample at wavelength 630 nm ABSbl 492: absorbance of blank corresponding to each sample at wavelength 492 nm ABSbl 630: absorbance of blank corresponding to each sample at wavelength 630 nm formula 2 […]
The analysis was performed by using nplr package on R (The R Foundation for Statistical Computing) and estimating the logistic regression curve (4-parameter).

For `CC(C)C[C@H]1ON(C(=O)/C=C/c2ccccn2)[C@H]2CN(C3CCN(C)CC3)C(=O)[C@H](CC(C)C)N2C1=O` [ID-1, (3R, 6S, 9aS)-3,6-diisobutyl-8-(1-methylpiperidin-4-yl)-1-((E)-3-(pyridin-2-yl)acryloyl) tetrahydropyrazino[2,1-c] [1,2,4]oxadiazine-4,7(3H,6H)-dione], the IC50 worked out at 4100 nM. In turn, `CC(C)C[C@H]1ON(C(=O)/C=C/c2nc3ccccc3s2)[C@H]2CN(C3CCN(C)CC3)C(=O)[C@H](CC(C)C)N2C1=O` [ID-2, (3R, 6S, 9aS)-1-((E)-3-(benzo[d]thiazol-2-yl)acryloyl)-3,6-diisobutyl-8-(1-methylpiperidin-4-yl) tetrahydropyrazino[2,1-c] [1,2,4]oxadiazine-4,7(3H,6H)-dione] registered an IC50 of 270 nM.

Consider `CC(C)C[C@H]1ON(C(=O)/C=C/c2nc(C#N)cs2)[C@H]2CN(C3CCN(C)CC3)C(=O)[C@H](CC(C)C)N2C1=O` [ID-3, 2-((E)-3-((3R, 6S, 9aS)-3,6-diisobutyl-8-(1-methylpiperidin-4-yl)-4,7-dioxohexahydropyrazino[2,1-c] [1,2,4]oxadiazin-1(6H)-yl)-3-oxoprop-1-en-1-yl)thiazole-4-carbonitrile], for which the IC50 was found to be 340 nM. In the case of `CC(C)C[C@H]1ON(C(=O)/C=C/c2nc3ccccc3s2)[C@H]2CN([C@H]3CCN(CCCCO)C3)C(=O)[C@H](CC(C)(C)C)N2C1=O` [ID-5, (3R,6S,9aS)-1-((E)-3-(benzo[d]thiazol-2-yl)acryloyl)-8-((S)-1-(4-hydroxybutyl)pyrrolidin-3-yl)-3-isobutyl-6-neopentyltetrahydropyrazino[2,1-c][1,2,4]oxadiazine-4,7(3H,6H)-dione], the IC50 stood at 180 nM.

Molecule `CC(C)C[C@H]1ON(C(=O)/C=C/c2nc3ccccc3s2)[C@H]2CN([C@@H]3CCN(CCCCO)C3)C(=O)[C@H](CC(C)(C)C)N2C1=O` [ID-6, (3R,6S,9aS)-1-((E)-3-(benzo[d]thiazol-2-yl)acryloyl)-8-((R)-1-(4-hydroxybutyl)pyrrolidin-3-yl)-3-isobutyl-6-neopentyltetrahydropyrazino[2,1-c][1,2,4]oxadiazine-4,7(3H,6H)-dione] gave an IC50 of 130 nM.

For the molecule `CC(C)C[C@H]1ON(C(=O)/C=C/c2nc3cc(O)ccc3s2)[C@H]2CN([C@H]3CCN(CCCCO)C3)C(=O)[C@H](CC(C)(C)C)N2C1=O` [ID-7, (3R,6S,9aS)-1-((E)-3-(5-hydroxybenzo[d]thiazol-2-yl)acryloyl)-8-((S)-1-(4-hydroxybutyl)pyrrolidin-3-yl)-3-isobutyl-6-neopentyltetrahydropyrazino[2,1-c][1,2,4]oxadiazine-4,7(3H,6H)-dione], the IC50 worked out at 70 nM.

For the molecule `CC(C)C[C@H]1ON(C(=O)/C=C/c2nc3cc(O)ccc3s2)[C@H]2CN(C3CN(CCCCO)C3)C(=O)[C@H](CC(C)(C)C)N2C1=O` [ID-8, (3R,6S,9aS)-1-((E)-3-(5-hydroxybenzo[d]thiazol-2-yl)acryloyl)-8-(1-(4-hydroxybutyl)azetidin-3-yl)-3-isobutyl-6-neopentyltetrahydropyrazino[2,1-c][1,2,4]oxadiazine-4,7(3H,6H)-dione], the IC50 is 63 nM. Still for that read-out and setting: the same measure for `CC(C)C[C@H]1ON(C(=O)/C=C/c2nc(C#CCCCCO)cs2)[C@H]2CN([C@H]3CCN(CCCCO)C3)C(=O)[C@H](CC(C)(C)C)N2C1=O` [ID-9, (3R,6S,9aS)-8-((S)-1-(4-hydroxybutyl)pyrrolidin-3-yl)-1-((E)-3-(4-(6-hydroxyhex-1-yn-1-yl)thiazol-2-yl)acryloyl)-3-isobutyl-6-neopentyltetrahydropyrazino[2,1-c][1,2,4]oxadiazine-4,7(3H,6H)-dione]: 99 nM; for `CC(C)C[C@H]1ON(C(=O)/C=C/c2nc(C#CCCCO)cs2)[C@H]2CN(C3CCN(C(C)C)CC3)C(=O)[C@H](CC(C)(C)C)N2C1=O` [ID-10, (3R,6S,9aS)-1-((E)-3-(4-(5-hydroxypent-1-yn-1-yl)thiazol-2-yl)acryloyl)-3-isobutyl-8-(1-isopropylpiperidin-4-yl)-6-neopentyltetrahydropyrazino[2,1-c][1,2,4]oxadiazine-4,7(3H,6H)-dione]: 48 nM. The molecule `CC(C)C[C@H]1ON(C(=O)/C=C/c2nc(C#CCCCCO)cs2)[C@H]2CN([C@@H]3CCN(CCCCO)C3)C(=O)[C@H](CC(C)(C)C)N2C1=O` [ID-11, (3R,6S,9aS)-8-((R)-1-(4-hydroxybutyl)pyrrolidin-3-yl)-1-((E)-3-(4-(6-hydroxyhex-1-yn-1-yl)thiazol-2-yl)acryloyl)-3-isobutyl-6-neopentyltetrahydropyrazino[2,1-c][1,2,4]oxadiazine-4,7(3H,6H)-dione] yielded an IC50 of 140 nM.

For the molecule `CC(C)C[C@H]1ON(C(=O)/C=C/c2nc3cc(O)ccc3s2)[C@H]2CN([C@@H]3CCN(CCCCO)C3)C(=O)[C@H](CC(C)(C)C)N2C1=O` [ID-12, (3R,6S,9aS)-1-((E)-3-(5-hydroxybenzo[d]thiazol-2-yl)acryloyl)-8-((R)-1-(4-hydroxybutyl)pyrrolidin-3-yl)-3-isobutyl-6-neopentyltetrahydropyrazino[2,1-c][1,2,4]oxadiazine-4,7(3H,6H)-dione], the IC50 stood at 60 nM. Regarding `CC(C)C[C@H]1ON(C(=O)/C=C/c2nc(C#CCCCCCO)cs2)[C@H]2CN([C@@H]3CCN(CCCCO)C3)C(=O)[C@H](CC(C)(C)C)N2C1=O` [ID-13, (3R,6S,9aS)-8-((R)-1-(4-hydroxybutyl)pyrrolidin-3-yl)-1-((E)-3-(4-(7-hydroxyhept-1-yn-1-yl)thiazol-2-yl)acryloyl)-3-isobutyl-6-neopentyltetrahydropyrazino[2,1-c][1,2,4]oxadiazine-4,7(3H,6H)-dione], the IC50 worked out at 140 nM. `CC(C)C[C@H]1ON(C(=O)/C=C/c2ccccn2)[C@H]2CN(CCC(N)=O)C(=O)[C@H](CC(C)C)N2C1=O` [ID-14, 3-((3R,6S,9aS)-3,6-diisobutyl-4,7-dioxo-1-((E)-3-(pyridin-2-yl)acryloyl)hexahydropyrazino[2,1-c][1,2,4]oxadiazin-8 (1H)-yl)propanamide] showed an IC50 of 17800 nM. With `CC(C)C[C@H]1ON(C(=O)/C=C/c2ccccn2)[C@H]2CN(C3CCN(C(=O)c4ccccc4)CC3)C(=O)[C@H](CC(C)C)N2C1=O` [ID-15, (3R,6S,9aS)-8-(1-benzoylpiperidin-4-yl)-3,6-diisobutyl-1-((E)-3-(pyridin-2-yl)acryloyl)tetrahydropyrazino[2,1-c][1,2,4]oxadiazine-4,7(3H,6H)-dione], the IC50 amounted to 5800 nM and the inhibition at 30 µM was 99.9%. The matching figures for `CC(C)C[C@H]1ON(C(=O)/C=C/c2ccccn2)[C@H]2CN(C3CCNCC3)C(=O)[C@H](CC(C)C)N2C1=O` [ID-16, (3R,6S,9aS)-3,6-diisobutyl-8-(piperidin-4-yl)-1-((E)-3-(pyridin-2-yl)acryloyl)tetrahydropyrazino[2,1-c][1,2,4]oxadiazine-4,7(3H,6H)-dione]: 4700 nM and 100%. As for `CC(C)C[C@H]1ON(C(=O)/C=C/c2nccs2)[C@H]2CN(CCC(N)=O)C(=O)[C@H](CC(C)C)N2C1=O` [ID-17, 3-((3R,6S,9aS)-3,6-diisobutyl-4,7-dioxo-1-((E)-3-(thiazol-2-yl)acryloyl)hexahydropyrazino[2,1-c][1,2,4]oxadiazin-8(1H)-yl)propanamide], the IC50 came out at 11400 nM and the inhibition at 30 µM stood at 100%. For the molecule `CNC(=O)CCN1C[C@@H]2N(C(=O)/C=C/c3ccccn3)O[C@H](CC(C)C)C(=O)N2[C@@H](CC(C)C)C1=O` [ID-18, 3-((3R,6S,9aS)-3,6-diisobutyl-4,7-dioxo-1-((E)-3-(pyridin-2-yl)acryloyl)hexahydropyrazino[2,1-c][1,2,4]oxadiazin-8 (1H)-yl)—N-methylpropanamide], 15900 nM corresponded to half-maximal inhibition (IC50) and the inhibition at 30 µM worked out at 96.4%. Consider `CNCCCN1C[C@H](CC(C)C)N2C(=O)[C@@H](CC(C)C)ON(C(=O)/C=C/c3ccccn3)[C@H]2C1` [ID-19, (3R,6S,9aS)-3,6-diisobutyl-8-(3-(methylamino)propyl)-1-((E)-3-(pyridin-2-yl)acryloyl)hexahydropyrazino[2,1-c][1,2,4]oxadiazin-4(3H)-one], for which the IC50 was determined as 10200 nM and the inhibition at 30 µM amounted to 99.7%.

On to `CC(C)C[C@H]1ON(C(=O)/C=C/c2ccc3ccccc3n2)[C@H]2CN(CCC(N)=O)C(=O)[C@H](CC(C)C)N2C1=O` [ID-20, 3-((3R,6S,9aS)-3,6-diisobutyl-4,7-dioxo-1-((E)-3-(quinolin-2-yl)acryloyl)hexahydropyrazino[2,1-c][1,2,4]oxadiazin-8 (1H)-yl)propanamide], for which 2400 nM corresponded to half-maximal inhibition (IC50) and the inhibition at 30 µM was 100%.
